Reference: article PMC7582571, “The First Berberine-Based Inhibitors of Tyrosyl-DNA Phosphodiesterase 1 (Tdp1), an Important DNA Repair Enzyme” (International Journal of Molecular Sciences, 2020)
Values joined by “and” are separate entries in the source; they are usually repeats but may differ in a detail not shown here. Identical values can stand only once. “Also recorded” adds a separate entry of the source. Like-named read-outs stand apart in the source and are kept apart here.

Key:
[1] = target: Tdp1 (Homo sapiens, UniProt Q9NUW8); experiment: Tdp1 activity, real-time fluorescence oligonucleotide biosensor (FAM/BHQ1) assay; assay type: biochemical
Description: An oligonucleotide real-time biosensor was used based on the ability of Tdp1 to remove fluorophore quenchers from the 3′-end of DNA, as previously described. The hexadecameric oligonucleotide carried 5(6)-carboxyfluorescein (FAM) at the 5′-end and the fluorophore quencher BHQ1 (Black Hole Quencher-1) at the 3′-end. Tdp1 inhibitors prevent removal of fluorophore quenchers, thus reducing fluorescence intensity.
The methodology has been reported in our previous work and consists of fluorescence intensity measurement in a reaction of quencher removal from a fluorophore quencher-coupled DNA oligonucleotide catalyzed by Tdp1. The reaction was carried out at different concentrations of inhibitors (the control samples contained 1% of DMSO, Sigma, St. Louis, MO, USA). The reaction mixtures contained Tdp1 buffer (50 mM Tris-HCl pH 8.0, 50 mM NaCl, and 7 mM β-mercaptoethanol), 50 nM biosensor, and an inhibitor being tested. Purified Tdp1 (1.5 nM) triggered the reaction. The biosensor (5′-[FAM] AAC GTC AGGGTC TTC C [BHQ]-3′) was synthesized in the Laboratory of Biomedical Chemistry at the Institute of Chemical Biology and Fundamental Medicine (Novosibirsk, Russia).
The reactions were incubated on a POLARstar OPTIMA fluorimeter (BMG LABTECH, GmbH, Ortenberg, Germany) to measure fluorescence every 55 s (ex. 485/em. 520 nm) during the linear phase (here, data from minute 0 to minute 8). The values of IC50 were determined using a six-point concentration response curve in minimum three independent experiments and were calculated using MARS Data Analysis 2.0 (BMG LABTECH, GmbH, Ortenberg, Germany).

[2] = Intrinsic cytotoxicity, EZ4U cell proliferation and cytotoxicity assay; assay type: cell-based, human; conditions: human, HeLa cells, compound alone, 3 days, read-out: CC50 (half maximal cytotoxic concentration)
Description: (§1) Top1 poisons are used as anticancer drugs for the treatment for various oncological diseases. Since Tdp1 is involved in the removal of DNA damage caused by Top1 poisons, the activity of Tdp1 can lead to the development of drug resistance. Thus, it is believed that Tdp1 inhibition can enhance the efficacy of Top1 poisons. Tdp1 inhibitors should have the lowest possible intrinsic toxicity to minimize potential side effects. Therefore, we studied the intrinsic cytotoxicity of the compounds against HeLa cells (cervical carcinoma). EZ4U cell proliferation and cytotoxicity assay results are shown in Figure 4 for the ligands with Tdp1 inhibitory activity.
(§2) The cell culture was monitored for 3 days.

[3] = system: HeLa cells; experiment: as above; assay type: cell-based, human; conditions: for CC50: compound alone, 3 days, read-out: CC50 (half maximal cytotoxic concentration); for Intrinsic toxicity to HeLa cells (in words): without topotecan
Description: as §1, §2

[4] = system: HeLa cells; experiment: cells; conditions: for effect of topotecan on the cytotoxicity of the Tdp1 inhibitor (in words): Mann–Whitney U-test; for CC50: Homo sapiens, HeLa
Method: For comparison, the concentration of the inhibitors was increased to 20 μM.
Cytotoxicity of the compounds to HeLa (human cervical cancer) cell line was examined using the EZ4U Cell Proliferation and Cytotoxicity Assay (Biomedica, Vienna, Austria), according to the manufacturer’s protocols. The cells were grown in Iscove’s modified Dulbecco’s medium (IMDM) with 40 μg/mL gentamicin, 50 IU/mL penicillin, 50 μg/mL streptomycin (MP Biomedicals, Santa Ana, CA, USA), and 10% of fetal bovine serum (Biolot, St. Petersburg, Russia) in a 5% CO2 atmosphere. After formation of a 30–50%-monolayer, the tested compounds were added to the medium. The volume of the added reagents was 1/100 of the total volume of the culture medium, and the amount of DMSO (Sigma, St. Louis, MO, USA) was 1% of the final volume. Control cells were grown in the presence of 1% DMSO. The cell culture was monitored for 3 days. To assess the influence of the inhibitors on the cytotoxic effect of topotecan (ACTAVIS GROUP PTC ehf., Bucharest, Romania), 50% cytotoxic concentrations of topotecan and of each inhibitor were determined to attain a defined single-agent effect. Then, minimum two independent tests were performed with each inhibitor in combination with topotecan. When using a combination of drugs, Tdp1 inhibitors were first added, then topotecan was added immediately (within 10–15 min).

[5] = purified Tdp1 1.5 nM, 50 nM biosensor, read-out: IC50 (Tdp1 inhibiting activity)
[6] = Tdp1, values of supplementary Table S1 (less rounded), read-out: IC50 (µM), Table S1

Tdp1, sequence (Q9NUW8 whole entry): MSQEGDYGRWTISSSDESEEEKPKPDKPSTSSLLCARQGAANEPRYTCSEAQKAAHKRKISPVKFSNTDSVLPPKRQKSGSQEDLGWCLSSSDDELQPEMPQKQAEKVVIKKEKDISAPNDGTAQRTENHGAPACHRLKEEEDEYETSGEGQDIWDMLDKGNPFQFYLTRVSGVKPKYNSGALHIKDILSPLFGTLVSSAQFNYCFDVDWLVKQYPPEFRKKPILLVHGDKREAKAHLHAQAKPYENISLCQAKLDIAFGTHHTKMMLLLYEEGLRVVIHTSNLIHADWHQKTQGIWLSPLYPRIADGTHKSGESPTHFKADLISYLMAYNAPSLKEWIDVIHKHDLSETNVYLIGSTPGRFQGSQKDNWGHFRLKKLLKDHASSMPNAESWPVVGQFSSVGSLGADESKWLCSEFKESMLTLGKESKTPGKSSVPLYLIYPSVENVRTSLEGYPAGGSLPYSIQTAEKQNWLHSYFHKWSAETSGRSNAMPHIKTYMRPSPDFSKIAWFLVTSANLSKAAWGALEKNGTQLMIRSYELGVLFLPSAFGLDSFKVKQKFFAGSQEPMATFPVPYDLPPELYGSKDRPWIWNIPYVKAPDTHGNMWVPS

Structure (SMILES)	IC50 [1, 5]	IC50 [1, 6]	CC50 at 3 days [2]	effect of topotecan on the cytotoxicity of the Tdp1 inhibitor (in words) ([4]; HeLa cells, 2 μM topotecan)	other results
COc1ccc2cc3[n+](cc2c1OS(C)(=O)=O)CCc1cc2c(cc1-3)OCO2 [10a, 10-Methoxy-9-methanesulfonyloxy-2,3-methylenedioxyprotoberberine chloride]	> 15 µM				
CCS(=O)(=O)Oc1c(OC)ccc2cc3[n+](cc12)CCc1cc2c(cc1-3)OCO2 [10b, 9-Ethanesulfonyloxy-10-methoxy-2,3-methylenedioxyprotoberberine chloride]	> 15 µM				
CCCS(=O)(=O)Oc1c(OC)ccc2cc3[n+](cc12)CCc1cc2c(cc1-3)OCO2 [10c, 10-Methoxy-2,3-methylenedioxy-9-((propane-1-sulfonyl)oxy)protoberberine chloride]	> 15 µM				
CCCCS(=O)(=O)Oc1c(OC)ccc2cc3[n+](cc12)CCc1cc2c(cc1-3)OCO2 [10d, 9-(Butane-1-sulfonyl)oxy-10-methoxy-2,3-methylenedioxy protoberberine chloride]	> 15 µM				
COc1ccc2c(c1OS(C)(=O)=O)CN1CCc3cc4c(cc3C1C2)OCO4 (stereo not shown) [11a]	> 15 µM				
CCS(=O)(=O)Oc1c(OC)ccc2c1CN1CCc3cc4c(cc3C1C2)OCO4 (stereo not shown) [11b]	> 15 µM				
CCCS(=O)(=O)Oc1c(OC)ccc2c1CN1CCc3cc4c(cc3C1C2)OCO4 (stereo not shown) [11c]	> 15 µM				
CCCCS(=O)(=O)Oc1c(OC)ccc2c1CN1CCc3cc4c(cc3C1C2)OCO4 (stereo not shown) [11d]	> 15 µM				
COc1ccc2c(c1OS(=O)(=O)c1ccc(C)cc1)CN1CCc3cc4c(cc3C1C2)OCO4 (stereo not shown) [11e]	> 15 µM				Tdp1 inhibitory activity (in words) [1]: inactive
COc1ccc2c(c1OS(=O)(=O)c1c(F)c(F)c(F)c(F)c1F)CN1CCc3cc4c(cc3C1C2)OCO4 (stereo not shown) [11f]	~1 µM and 1 µM	0.98 ± 0.2 µM	10 µM	significantly increased	cell death ([3]; 5 μM): 20%; cells that die ([3]; 20 μM): 90%; CC50 [3]: 11 ± 2 µM; decrease of CC50 in the presence of topotecan (fold) ([4]; HeLa cells, 2 μM topotecan): three fold
COc1ccc2c(c1OS(=O)(=O)c1c(F)c(F)cc(F)c1F)CN1CCc3cc4c(cc3C1C2)OCO4 (stereo not shown) [11g]	1.05 ± 0.05 µM	1.05 ± 0.05 µM	> 100 µM	significantly increased	living cells ([3]; 100 μM maximum concentration): 100%; Intrinsic toxicity to HeLa cells (in words) [3]: low toxicity; also recorded: nontoxic; sensitizing effect on the cytotoxicity of topotecan (in words) ([4]; HeLa cells): doubled; also recorded: significant effect; also recorded: pronounced sensitizing effect; also recorded: sensitized the cancer cells to topotecan; decrease in cell survival in the presence of topotecan ([4]; HeLa cells, 2 μM topotecan, at all inhibitor concentrations): ~ 30%
COc1ccc2c(c1OS(=O)(=O)c1c(F)c(F)c(C(F)(F)F)c(F)c1F)CN1CCc3cc4c(cc3C1C2)OCO4 (stereo not shown) [11h]	0.9 ± 0.2 µM	0.93 ± 0.22 µM	2.6 ± 0.1 µM	negligible or unreliable	
COc1cc(Br)c2c(c1OS(C)(=O)=O)CN1CCc3cc4c(cc3C1C2)OCO4 (stereo not shown) [12a]	> 15 µM				
CCS(=O)(=O)Oc1c(OC)cc(Br)c2c1CN1CCc3cc4c(cc3C1C2)OCO4 (stereo not shown) [12b]	> 15 µM				
CCCS(=O)(=O)Oc1c(OC)cc(Br)c2c1CN1CCc3cc4c(cc3C1C2)OCO4 (stereo not shown) [12c]	2.9 ± 1.3 µM	2.86 ± 1.25 µM	> 100 µM	negligible or unreliable	Intrinsic toxicity to HeLa cells (in words) [3]: non-toxic up to 100 μM
CCCCS(=O)(=O)Oc1c(OC)cc(Br)c2c1CN1CCc3cc4c(cc3C1C2)OCO4 (stereo not shown) [12d]	4 ± 1 µM	4.06 ± 1.05 µM	> 100 µM	negligible or unreliable	Intrinsic toxicity to HeLa cells (in words) [3]: non-toxic up to 100 μM
COc1cc(Br)c2c(c1OS(=O)(=O)c1ccc(C)cc1)CN1CCc3cc4c(cc3C1C2)OCO4 (stereo not shown) [12e]	> 15 µM				Tdp1 inhibitory activity (in words) [1]: inactive
COc1cc(Br)c2c(c1OS(=O)(=O)c1c(F)c(F)c(F)c(F)c1F)CN1CCc3cc4c(cc3C1C2)OCO4 (stereo not shown) [12f]	0.53 ± 0.01 µM		10 µM	negligible or unreliable	CC50 [3]: 9.9 ± 4.5 µM
COc1cc(Br)c2c(c1OS(=O)(=O)c1c(F)c(F)cc(F)c1F)CN1CCc3cc4c(cc3C1C2)OCO4 (stereo not shown) [12g]	1.3 ± 0.3 µM	1.33 ± 0.28 µM	95 ± 5 µM	significantly increased	sensitizing effect on the cytotoxicity of topotecan (in words) ([4]; HeLa cells): doubled; also recorded: significant effect; also recorded: pronounced sensitizing effect; also recorded: sensitized the cancer cells to topotecan
COc1cc(Br)c2c(c1OS(=O)(=O)c1c(F)c(F)c(C(F)(F)F)c(F)c1F)CN1CCc3cc4c(cc3C1C2)OCO4 (stereo not shown) [12h]	1.4 ± 0.3 µM	1.38 ± 0.3 µM	2.2 ± 1.5 µM	negligible or unreliable	
COc1ccc2cc3[n+](cc2c1OC)CCc1cc2c(cc1-3)OCO2 [compound 9, berberine]		> 15 µM			
CC[C@@]1(O)C(=O)OCc2c1cc1n(c2=O)Cc2cc3c(CN(C)C)c(O)ccc3nc2-1 [topotecan, reference compound]			2 µM		CC50 ([4]; read-out: CC50, μM–5 μM Tdp1 inhibitor (cytotoxic potential of topotecan)): 6.8 ± 1.1 µM; CC50 ([4]; read-out: CC50, μM–20 μM Tdp1 inhibitor (cytotoxic potential of topotecan)): 6.8 ± 1.1 µM
